Measurements: patent EP3153515A1, “COMPOUNDS FOR INHIBITING HEPATITIS C VIRUS, PHARMACEUTICAL COMPOSITIONS AND USES THEREOF” (priority 2014, dated 2015)

tested on: HCV NS5A replicon GT-1a; assay: HCV NS5A replicon anti-viral activity (EC50), dual-reporter Renilla luciferase, GT-1a; type: cell-based; conditions: Hepatitis C virus, GT1A, read-out: NS5A Inhibitory Activity (EC50 of GT-1a subtype inhibition)
Text: The autonomous replication level of HCV in liver cells in vitro is very low, and the only animal that can be infected by HCV is chimpanzee, therefore there is no appropriate animal model currently available for preclinical pharmacodynamic study. Some researchers have transplanted human liver tissue infected with HCV in vitro into immune deficient mice to establish an in vivo mice model, but these mice are hard to raise and the model is unstable and short of normal immunologic reaction. Moreover, the model has significant difference with the pathogenic process of hepatitis C, therefore, it has not been used for animal model to assess the action of anti-HCV medicine yet. The progress of the development of anti-viral drugs for the treatment of HCV infection had been very slow because the pathogenic mechanism and life cycle of HCV were unclear before 1999 due to the lack of cell culture system for effective multiplication of HCV. But researchers managed to achieve a breakthrough in 1999 after numerous attempts. An effective cell culture model-replicon system in which HCV is capable of autonomous replication in transfected human hepatic carcinoma cell line Huh-7 had been established in that year on the basis of subgenomic HCV RNA built with genetic engineering.
The above-mentioned cell culture model-replicon system which has been widely accepted in the industry is used in this invention for ex vivo experiments and subsequent assessment of drugs based on the experiment results.
The therapeutic effect of the compounds of this invention on HCV infection can be preliminarily assessed through the following preclinical in vitro inhibitory action test and can be further confirmed in clinical trials. Other methods used in the invention are also quite familiar to professionals in this field with ordinary technical knowledge. Method for testing the anti-viral activity(EC50) in HCV NS5A replicon system: • The viral replication level in infected cells was determined by testing Renilla luciferase with the newly established dual-reporter gene replicon system. There was a good linear relation between the expression level of the reporter gene and the HCV RNA replication level and viral protein expression level. The anti-viral activity was determined for 3 replicates in 3 replicate cells at five(5) 1:2 diluted concentration gradients, with 1 to 2 positive controls. The EC50 of the compounds was calculated in the end.
The compounds of the invention, or their stereoisomers, tautomers, esterified or amidated prodrugs, or pharmaceutically acceptable salts and mixtures have been subjected to test to determined their therapeutic effects in the treatment of HCV infection. […] Moreover, the results of 6a-6ep(Ia), 6fa-6gq(Ib) and reference compounds Ref-1(BMS-790052), Ref-2(GS5885), Ref-3 in HCV-NS5 inhibition test reveal that the cyclopentanyl/hexamethyleneamino radical containing linear polypeptide compounds 6a-6ep, 6fa-6gq and reference compounds Ref-1, Ref-2, Ref-3 have good HCV inhibitory results. […] The replicons GT-1a, GT-lb, GT-2a, GT-3a, GT-4a, GT-5a and GT-6a used for the test are routine replicons commercially available in this field. Table 1: HCV NS5A replicon inhibitory activity test results of compounds (6a-6gq) of the invention

Compound `CC(C)[C@H](NC(=O)OC(C)(C)C)C(=O)N1C[C@H](OC(=O)N2Cc3cc4c(cc3C2)OCO4)C[C@H]1c1nc(-c2ccc(-c3ccc(-c4cnc([C@@H]5C[C@@H](OC(=O)N6Cc7cc8c(cc7C6)OCO8)CN5C(=O)[C@@H](NC(=O)OC(C)(C)C)C(C)C)[nH]4)cc3)cc2)c[nH]1` [6p] has an EC50 of over 50000 pM.

same assay, conditions: Hepatitis C virus, GT1A; GT-1a replicon; read-out: NS5A Inhibitory Activity (EC50 of GT-1a subtype inhibition)

`COC(=O)N[C@H](C(=O)N1CC=C[C@H]1c1ncc(-c2ccc(-c3ccc(-c4cnc([C@@H]5CCCN5C(=O)[C@@H](NC(=O)N(C)C)C(C)C)[nH]4)cc3)cc2)[nH]1)C(C)C` [6df] and `CNC(=O)N[C@H](C(=O)N1CC=C[C@H]1c1ncc(-c2ccc(-c3ccc(-c4cnc([C@@H]5CCCN5C(=O)[C@@H](NC(=O)NC)C(C)C)[nH]4)cc3)cc2)[nH]1)C(C)C` [6ch] fall in the same range of EC50: 1 to 999 pM for the first, 1 to 999 pM for the second.

`COC(=O)N[C@H](C(=O)N1CN(C(=O)N2Cc3ccc4c(c3C2)OCO4)C[C@H]1c1ncc(-c2ccc(-c3cccc4c(-c5cnc([C@@H]6CCCN6C(=O)[C@@H](NC(=O)OC)C(C)C)[nH]5)cccc34)cc2)[nH]1)C(C)C` [6ee] and `COC(=O)N[C@H](C(=O)N1CC=C[C@H]1c1ncc(-c2ccc(-c3cccc4c(-c5cnc([C@@H]6CCCN6C(=O)[C@@H](NC(=O)OC)C(C)C)[nH]5)cccc34)cc2)[nH]1)C(C)C` [6ef] fall in the same range of EC50: 1 to 999 pM for the first, 1 to 999 pM for the second.

`COC(=O)N[C@H](C(=O)N1CC=C[C@H]1c1nc(-c2ccc(-c3ccc(-c4c[nH]c([C@@H]5CCCN5C(=O)C5(NC(=O)OC)CC5)n4)cc3)cc2)c[nH]1)C(C)C` [6bh] and `COC(=O)N[C@H](C(=O)N1CCC[C@H]1c1nc(-c2ccc(-c3ccc(-c4cnc([C@@H]5CC6(CN5C(=O)[C@@H](NC(=O)OC)C(C)C)OCCO6)[nH]4)cc3)cc2)c[nH]1)C(C)C` [6ds] fall in the same range of EC50: 1 to 999 pM for the first, 1 to 999 pM for the second.

First: COC(=O)N[C@H](C(=O)N1CCC[C@H]1c1nc(-c2ccc(-c3ccc(-c4c[nH]c([C@@H]5C[C@H](Oc6nc7ccccc7nc6-c6cccs6)CN5C(=O)[C@@H](NC(=O)OC)C(C)C)n4)cc3)cc2)c[nH]1)C(C)C [6x]
Second: COC(=O)N[C@H](C(=O)N1CCC[C@H]1c1nc(-c2ccc(-c3ccc(-c4c[nH]c([C@@H]5C[C@@H](Oc6nc7ccccc7nc6-c6cccs6)CN5C(=O)[C@@H](NC(=O)OC)C(C)C)n4)cc3)cc2)c[nH]1)C(C)C [6w]
The EC50 of the first is lower: 1 to 999 pM for the first, over 50000 pM for the second.

`COC(=O)N[C@H](C(=O)N1CCC[C@H]1c1nc(-c2ccc(-c3ccc(-c4cnc([C@@H]5C[C@@H](OC(=O)N6Cc7ccc8c(c7C6)OCO8)CN5C(=O)[C@@H](NC(=O)OC)C(C)C)[nH]4)cc3)cc2)c[nH]1)C(C)C` [6a] and `COC(=O)N[C@H](C(=O)N1CC=C[C@H]1c1ncc(-c2ccc(-c3csc4c(-c5c[nH]c([C@@H]6CCCN6C(=O)[C@@H](NC(=O)OC)C(C)C)n5)csc34)cc2)[nH]1)C(C)C` [6fj] fall in the same range of EC50: 1 to 999 pM for the first, 1 to 999 pM for the second.

`COC(=O)N[C@@H](C(=O)N1CC=C[C@H]1c1ncc(-c2ccc(-c3cc4sc(-c5cnc([C@@H]6CCCN6C(=O)[C@H](NC(=O)OC)c6ccccc6)[nH]5)cc4o3)cc2)[nH]1)c1ccccc1` [6fr] and `CN(C)C(=O)NC(C(=O)N1CC=C[C@H]1c1ncc(-c2ccc(-c3ccc(-c4cnc([C@@H]5CCCN5C(=O)C(NC(=O)N(C)C)c5ccccc5)[nH]4)cc3)cc2)[nH]1)c1ccccc1` (some centres unmarked) [6ce] fall in the same range of EC50: 1 to 999 pM for the first, 1 to 999 pM for the second.

`COC(=O)N[C@H](C(=O)N1CC=C[C@H]1c1nc2ccc(-c3csc4c(-c5ccc(-c6cnc([C@@H]7CCCN7C(=O)[C@H](NC(=O)OC)c7ccccc7)[nH]6)cc5)csc34)cc2[nH]1)C(C)C` [6fy] and `COC(=O)N[C@H](C(=O)N1CCC[C@H]1c1nc2ccc(-c3csc4c(-c5ccc(-c6ccc7nc([C@@H]8C=CCN8C(=O)[C@H](NC(=O)OC)c8ccccc8)[nH]c7c6)cc5)csc34)cc2[nH]1)C(C)C` [6gq] fall in the same range of EC50: 1 to 999 pM for the first, 1 to 999 pM for the second.

`COC(=O)N[C@H](C(=O)N1CCC[C@H]1c1ncc(-c2ccc(-c3ccc(-c4cnc([C@@H]5C=CCN5C(=O)[C@@H](NC(=O)OC)C5CCCCC5)[nH]4)cc3)cc2)[nH]1)C(C)C` [6di] and `COC(=O)N[C@H](C(=O)N1CC=C[C@H]1c1nc(-c2csc3c(-c4ccc(-c5cnc([C@@H]6CCCN6C(=O)[C@H](NC(=O)OC)c6ccccc6)[nH]5)cc4)csc23)c[nH]1)C(C)C` [6ft] fall in the same range of EC50: 1 to 999 pM for the first, 1 to 999 pM for the second.
